Molecular target: T1, Cholesteryl ester transfer protein (Homo sapiens, UniProt P11597)
T1 sequence (P11597 whole entry): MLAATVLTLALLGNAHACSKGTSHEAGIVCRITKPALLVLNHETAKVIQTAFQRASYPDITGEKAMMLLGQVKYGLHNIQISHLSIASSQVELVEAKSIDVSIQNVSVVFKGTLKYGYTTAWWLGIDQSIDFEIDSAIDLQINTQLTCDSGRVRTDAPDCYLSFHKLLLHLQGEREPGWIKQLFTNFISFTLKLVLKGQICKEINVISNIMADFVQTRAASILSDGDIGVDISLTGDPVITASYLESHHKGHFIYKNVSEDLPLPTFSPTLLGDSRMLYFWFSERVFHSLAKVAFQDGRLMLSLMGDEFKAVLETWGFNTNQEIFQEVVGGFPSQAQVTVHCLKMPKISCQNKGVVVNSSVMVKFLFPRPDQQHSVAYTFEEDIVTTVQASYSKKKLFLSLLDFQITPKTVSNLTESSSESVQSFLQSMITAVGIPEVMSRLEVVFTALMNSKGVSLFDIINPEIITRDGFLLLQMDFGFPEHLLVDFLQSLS
Assay: Inhibition of CETP

`OC(CN(Cc1cccc(OC(F)(F)C(F)F)c1)c1cccc(Oc2cccc(CC(F)(F)F)c2)c1)C(F)(F)F` (centres undefined) was tested. Which IC50 did it give?
Its IC50 is 30 nM.

Which IC50 does the source give for `OC(CN(Cc1cccc(OC(F)(F)C(F)F)c1)c1cccc(-c2ccncc2)c1)C(F)(F)F` (centres undefined) here?
The IC50 was 6240 nM.

How did the IC50 turn out when `OC(CN(Cc1cccc(OC(F)(F)C(F)F)c1)c1cccc(OCc2ccccc2CC(F)(F)F)c1)C(F)(F)F` (centres undefined) was run?
The IC50 was 90 nM.

With `OC(CN(Cc1cccc2c1OC(F)(F)C(F)(F)O2)c1cccc(Oc2ccccc2)c1)C(F)(F)F` (centres undefined) as the compound, how does the IC50 read?
Its IC50 is 12000 nM.

`Cc1cc(C)cc(Oc2cccc(CN(CC(O)C(F)(F)F)c3cccc(Oc4ccccc4)c3)c2)c1` (centres undefined) was tested. Which IC50 did it give?
The IC50 was 70 nM.

Which IC50 does the source give for `CCCCc1ccc(Oc2cccc(N(Cc3cccc(OC(F)(F)C(F)F)c3)CC(O)C(F)(F)F)c2)cc1` (centres undefined) here?
The IC50 was 200 nM.

Which IC50 does the source give for `OC(CN(Cc1cccc(-c2cccc(C(F)(F)F)n2)c1)c1cccc(Oc2ccccc2)c1)C(F)(F)F` (centres undefined) here?
Its IC50 is 4080 nM.

With `CCCCC(O)CN(Cc1cccc(OC(F)(F)F)c1)c1cccc(Oc2ccccc2)c1` (centres undefined) as the compound, how does the IC50 read?
Its IC50 is 3600 nM.

`OC(CN(Cc1cccc(OC(F)(F)C(F)F)c1)c1cccc(Oc2ccc(F)c(F)c2)c1)C(F)(F)F` (centres undefined) was tested. Which IC50 did it give?
The IC50 was 80 nM.

`OC(CN(Cc1cccc(OC(F)(F)C(F)F)c1)c1cccc(OCc2ccccc2OC(F)(F)F)c1)C(F)(F)F` (centres undefined) was tested. Which IC50 did it give?
The IC50 was 60 nM.

`Cc1cccc(-c2cccc(CN(CC(O)C(F)(F)F)c3cccc(Oc4ccccc4)c3)c2)n1` (centres undefined) was tested. Which IC50 did it give?
Its IC50 is 15000 nM.

With `OC(CN(Cc1cccc(OC(F)(F)F)c1)c1cccc(Oc2ccccc2)c1)c1ccccc1` (centres undefined) as the compound, how does the IC50 read?
Its IC50 is 50000 nM.

How did the IC50 turn out when `CC(C)(O)c1cccc(N(Cc2cccc(OC(F)(F)C(F)F)c2)CC(O)C(F)(F)F)c1` (centres undefined) was run?
The IC50 was 7800 nM.

With `CC(C)(C)c1cccc(Oc2cccc(N(Cc3cccc(OC(F)(F)C(F)F)c3)CC(O)C(F)(F)F)c2)c1` (centres undefined) as the compound, how does the IC50 read?
Its IC50 is 100 nM.

Reference: ChEMBL document CHEMBL1149646, “2D Quantitative structure-activity relationship studies on a series of cholesteryl ester transfer protein inhibitors” (Bioorg Med Chem, 2007)
